These results are taken from the METLIN SMRT retention time set (Domingo-Almenara et al. 2019).

This data set is described as follows: gradient 5% acetonitrile 3 min, to 50% in 2 min, to 85% in 15 min, held 3 min, 100 µL/min. Particulars: column: Zorbax Extend-C18 2.1 x 50 mm; eluents: water / acetonitrile, 0.1% formic acid. A digest of the protocol:
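Retention times of pure standards were taken from adduct peaks that were selected by computer and manually inspected. Over 3 months, mixtures of ~100 molecules were run by HPLC–quadrupole time-of-flight mass spectrometry in positive and negative ionization mode. The Zorbax Extend-C18 column (2.1 × 50 mm, 1.8 μm) ran at 100 μL/min in water and acetonitrile, each containing 0.1% formic acid, with 40 μL dead volume and 900 μL dwell volume.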
With `COCc1cc(=O)n(CC(=O)Nc2cccc(OC)c2)c(N2CCOCC2)n1`, the RP-LC retention time is 779 s. As for `Fc1ccccc1Cc1nc(-c2cccc(-c3ccn[nH]3)c2)no1`, the RP-LC retention time came to 939 s. `CCOc1ccc(CNC(=O)CN2CC=C(c3cnn(-c4ccccc4)c3)CC2)cc1`: the RP-LC retention time worked out at 722 s.

`Cc1oc2c(c1C(=O)NCCc1ccccc1Cl)C1=NCCN1C=N2` displayed an RP-LC retention time of 651 s. Turning to `O=C(Nc1ccc(F)cc1F)Nc1c(-c2ccc(F)cc2)nc2ccccn12`, the RP-LC retention time is 677 s. Under `O=C(CSc1ccc(N2CCOCC2)nn1)Nc1ccccc1Cl` stands 730 s. On to `CCOc1ccccc1NC(=O)N1CCCC1c1c(C)noc1C` (stereo not drawn), for which the RP-LC retention time was determined as 833 s.

The compound `COc1ccc(-c2nc(C3CC(=O)N(c4ccc(C)cc4)C3)no2)cc1OC` (stereo not drawn) displayed an RP-LC retention time of 937 s.

On to `O=C(c1ccc(F)c(Cl)c1)N1CCC2(CC1)N=C(c1ccccc1)NO2`, for which the RP-LC retention time was 800 s.

The compound `O=C(Cn1cnc2c(sc3nc(-c4ccccc4)ccc32)c1=O)Nc1ccc(Cl)cc1F` gave an RP-LC retention time of 1110 s. `Cc1ccc(Nc2nc(C)cc(N3CCN(S(=O)(=O)c4ccc(C(F)(F)F)cc4)CC3)n2)cc1` gave an RP-LC retention time of 851 s. Compound `CC(C)Cc1ccc(S(=O)(=O)N2CCc3c(c(CN4CCN(C)CC4)nn3C)C2)cc1` yielded an RP-LC retention time of 687 s. `COc1cc(C)c(C)cc1S(=O)(=O)Nc1ccc2c(c1)N(S(C)(=O)=O)CCC2` had an RP-LC retention time of 844 s.

Regarding `Cc1ccccc1Nc1c(-c2ccc(N3CCOCC3)cc2)nc2ccccn12`, the RP-LC retention time came to 712 s.

`CCOc1ccc(-n2nnnc2CN2CCN(S(=O)(=O)c3cccs3)CC2)cc1`: the RP-LC retention time turned out to be 874 s.

The compound `Cn1nc(-c2nc(C3CC3)no2)c2c1CCN(C(=O)c1cc3c(s1)CCCC3)C2` had an RP-LC retention time of 1010 s. Then `CN(C)S(=O)(=O)c1ccc2c(c1)N(CC(=O)NCc1cccc(Cl)c1)C(=O)C1CCCCN21` (stereo not drawn), with 957 s. Under `Cn1nc(C(=O)N2CCCC2)c2c1CCN(C(=O)CCC(=O)N1CCN(c3ccccc3)CC1)C2` stands 701 s; under `O=C(NCc1ccc2c(c1)OCO2)c1ccc(-c2cccs2)nc1`, 863 s; under `Cc1ccn2cc(-c3ccc(NC(=O)c4ccc([N+](=O)[O-])cc4Cl)cc3)nc2n1`, 660 s. `Cc1ccc(S(=O)(=O)CCC(=O)N2CCCC2c2nc(-c3ccc(Cl)cc3)no2)cc1` (stereo not drawn): the RP-LC retention time amounted to 1060 s. Under `O=C(NC1CCN(c2cc(-c3ccc(F)cc3)[nH]n2)C1)c1cccc(Cl)c1` (stereo not drawn) stands 774 s.

Compound `COc1ncccc1CNC(=O)c1nn(C)c2ccccc12` yielded an RP-LC retention time of 798 s.

In turn, `CCOC(=O)c1[nH]c(C)c(CN(Cc2ccco2)C(=O)Nc2ccc(F)cc2)c1C` came in with an RP-LC retention time of 936 s.

In the case of `c1ccc(-c2csc(Nc3ncccn3)n2)cc1`, the RP-LC retention time amounted to 906 s.

Compound `O=C(c1nnc(-c2ccc(S(=O)(=O)N3CCOCC3)cc2)o1)N1CCc2ccccc2C1` yielded an RP-LC retention time of 917 s. Then `O=C(NCc1ccc(F)cc1)C1CCCN(c2nnc3ccc(Cl)cn23)C1` (stereo not drawn), with 749 s; and `CC(C)C(=O)N1CCN(c2nc(CN3CCOCC3)cs2)CC1`, with 569 s.

In turn, `CCCCC(=O)N(CC)c1nc(-c2ccccc2)cs1` gave an RP-LC retention time of 1330 s. `CC(C)NC(=O)c1nc(-c2cn(-c3cccc(F)c3)nn2)no1`: the RP-LC retention time amounted to 834 s. Compound `CC(C)NC(=O)Cn1cccc(-c2nc(-c3ccc(F)cc3)no2)c1=O` came in with an RP-LC retention time of 735 s. Under `CN(C)S(=O)(=O)c1cc(-c2nnc(-c3ccc(F)cc3)o2)ccc1Cl` stands 991 s. Compound `Cc1cc(=O)n2nc(-c3ccc(Cl)cc3)nc2n1CC(=O)NC(C)C` registered an RP-LC retention time of 744 s. Compound `CC1(C(=O)NC2CCCCCCC2)CN(S(C)(=O)=O)CC(=O)N1c1ccccc1Cl` (stereo not drawn) showed an RP-LC retention time of 924 s. In turn, `CN(C)C(CNC(=O)c1cc(=O)c2cc(Cl)ccc2o1)c1cccs1` (stereo not drawn) gave an RP-LC retention time of 631 s.

As to `Cc1sc2cc(C(=O)O)[nH]c2c1C(=O)N1CCOCC1`, the RP-LC retention time is 622 s. Turning to `COc1ccc(-c2csc3c(=O)n(CC(=O)OC(C)C)cnc23)cc1`, the RP-LC retention time was 939 s.

Consider `CCC(C(=O)NC1CC1)n1nc(C)c2c(C)n(-c3ccc(C)cc3)nc2c1=O` (stereo not drawn), for which the RP-LC retention time stood at 802 s.

In turn, `CCc1ccccc1S(=O)(=O)N1CCC(N2CCN(Cc3ccc(C)cc3)C(=O)C2=O)CC1` returned an RP-LC retention time of 955 s. Under `Cc1ncoc1C(=O)N1CCC(c2noc(-c3ccccc3)n2)C1` (stereo not drawn) stands 763 s. `O=C1NCCOCCCN(C(=O)Nc2ccccc2)[C@H]2CCCC[C@@H]12`: the RP-LC retention time came to 672 s. Consider `COc1ccc(NC(=O)Cn2nc(C(=O)N3CCCC3)c3ccccc32)cc1`, for which the RP-LC retention time is 800 s. The compound `O=C(NOCC1CC1)c1ccc(F)c(F)c1Nc1ccc(I)cc1Cl` came in with an RP-LC retention time of 1150 s. `COc1ccc(CNC(=O)CN2C(=O)NC3(CCCCC3)C2=O)cc1OC` gave an RP-LC retention time of 659 s. `Cc1ccc2nc(CN(C)Cc3ccc(Cl)cc3)cc(=O)n2c1` registered an RP-LC retention time of 627 s. Regarding `CC(C)n1cnc(S(=O)(=O)N2CCC(C(=O)Nc3ccc(Cl)cc3)CC2)c1`, the RP-LC retention time worked out at 824 s. Regarding `Cc1oc2ccn(Cc3ccccc3F)c(=O)c2c1C(=O)NCc1ccccc1`, the RP-LC retention time was found to be 1070 s. `COC(=O)c1cc2n(n1)CC(C)(C(=O)NC1CCCC1)N(c1ccccc1C)C2=O` (stereo not drawn) came in with an RP-LC retention time of 801 s.

As for `CC(Cc1ccco1)NC(=O)c1cc(S(=O)(=O)N2CCCCCC2)ccc1Cl` (stereo not drawn), the RP-LC retention time stood at 1010 s. In the case of `C=CCn1c(=O)c2ccccc2n(Cc2nc(-c3cccc(OC)c3)no2)c1=O`, the RP-LC retention time stood at 1010 s.

Turning to `COc1nn(C)cc1C(=O)N1CCCC(C(=O)NCc2ccccc2OC(F)(F)F)C1` (stereo not drawn), the RP-LC retention time came to 705 s. On to `COc1ccc(OC)c(NC(=O)Cn2cccc2-c2nnc(-c3ccccc3)o2)c1`, for which the RP-LC retention time came to 1020 s. As to `Cc1cn(C)c(CC(=O)NCCCN2CCCC(C)C2)c1C(=O)O` (stereo not drawn), the RP-LC retention time stood at 586 s. Then `Cn1cc(-c2cc3n(n2)CCC(=O)N3CCCC(=O)Nc2ccccc2F)c2ccccc21`, with 844 s; and `Cc1csc(-c2cc(S(=O)(=O)Nc3ccc(F)cc3F)cn2CC(=O)N2CCCC2)n1`, with 880 s; and `Fc1ccc(C2Cn3nnc(-c4nc(-c5ccncc5)no4)c3CO2)cc1` (stereo not drawn), with 912 s.

Regarding `O=C(NCC(c1ccsc1)N1CCc2ccccc2C1)c1cccs1` (stereo not drawn), the RP-LC retention time was determined as 569 s. As to `COc1ccc(-c2ncc3c(n2)CCN(C(=O)Nc2cccc(Br)c2)C3)cc1`, the RP-LC retention time is 1010 s.

As to `O=C(Cn1cnc2nc(N3CCCC(C(=O)NC4CC4)C3)sc2c1=O)Nc1ccc(F)cc1` (stereo not drawn), the RP-LC retention time turned out to be 672 s. With `Cc1ccc(N2CCC(NC(=O)NC(C)(C)C)C2=O)cc1C` (stereo not drawn), the RP-LC retention time was 803 s. Take `COc1cn(CC(=O)Nc2cccc(C)c2C)c(CN2CCCCCC2)cc1=O`: the RP-LC retention time turned out to be 574 s. `Cc1cccc(NC(=O)N2CCCC(C)(C(=O)NCc3ccccc3C)C2)c1` (stereo not drawn): the RP-LC retention time is 959 s.

Compound `Cc1nc(OCC(=O)NCc2ccccc2)c2ccccc2n1` gave an RP-LC retention time of 621 s. `CCOc1ccc(OCC)c(NS(=O)(=O)c2cc(-c3c(C)noc3NC(C)=O)ccc2OC)c1` registered an RP-LC retention time of 864 s. Under `O=C(Cn1ncc2c(N3CCN(c4ccccn4)CC3)ncnc21)Nc1ccc(F)cc1Cl` stands 650 s; under `O=C(CSc1nc(-c2ccccc2)c(-c2ccccc2)o1)NCCCO`, 760 s. Under `CCOc1ccc(C(=O)N2CCC3(CC2)C(=O)N(CC)c2ccccc23)cc1OCC` stands 939 s.

In the case of `CCN1c2cc(C)ccc2-n2cccc2C12CCN(C(=O)NCCCOC)CC2`, the RP-LC retention time came to 931 s. `Cc1cc(Cl)ccc1NC(=O)c1cn(C)c2ncccc12` came in with an RP-LC retention time of 827 s.

In turn, `Cc1ncsc1CN1CCCC(n2c(C)cnc2-c2cccnc2)C1` (stereo not drawn) had an RP-LC retention time of 527 s. Then `O=C(Cc1ccc([N+](=O)[O-])cc1)NCc1ccc2[nH]c3c(c2c1)CCCC3`, with 849 s; and `CCOc1ccc(C2Cn3nnc(-c4nc(-c5ccc(F)c(F)c5)no4)c3CO2)cc1` (stereo not drawn), with 1250 s; and `CCOc1ccc(C(=O)NC2CCN(c3cc(-c4ccc(OC)cc4)[nH]n3)C2)cc1OCC` (stereo not drawn), with 742 s. As to `O=C(CSc1ccc(-c2ccc3c(c2)OCO3)nn1)Nc1ccc2c(c1)OCCO2`, the RP-LC retention time was determined as 782 s. Under `COc1ccc(CC(=O)N2CCC(n3cnnc3C3CC3)CC2)cc1Cl` stands 658 s.

In turn, `COc1ccc(OC)c(-c2[nH]ncc2CN2CC(F)(F)C[C@H]2CN2CCCCC2)c1` showed an RP-LC retention time of 632 s. Compound `COc1ccccc1CNC(=O)C1CCCN(c2ccc(=O)n(-c3cccc(Cl)c3)n2)C1` (stereo not drawn) showed an RP-LC retention time of 883 s. For the compound `Cc1ccc(-c2n[nH]c3c2CN(C(=O)c2cnn4cccnc24)CC3)cc1`, the RP-LC retention time was found to be 648 s.
